Assay results taken from patent EP2319515A1, “COCCIDICIDE COMBINATION FOR VETERINARY USE” (Laboratorio Avi-Mex, S.A. De C.V., priority 2008, dated 2010).

System: Eimeria tenella sporocytes
Assay: in vitro comparative trials for effectiveness: chicken fibroblasts infected with E. tenella sporocytes
Assay type: cell-based
Settings: 24 hours of incubation; for cells quantified in 9 fields, X (±SD): CS-3 chicken fibroblasts + E. tenella sporocytes (about 3 per cell), microscope 40 X; for cells quantified in 9 fields, Means mean (±SD): mean of replications A to C, CS-3 chicken fibroblasts + E. tenella sporocytes

CO[C@@H]1[C@@H](OC)[C@H](C)[C@@](O)(CC(=O)O)O[C@H]1[C@H](C)[C@H]1O[C@@]2(CC[C@@](C)([C@H]3CC[C@@](C)([C@@H]4O[C@@H]([C@H]5O[C@](C)(O)[C@H](C)C[C@@H]5C)C[C@@H]4O[C@@H]4C[C@H](OC)[C@@H](OC)[C@H](C)O4)O3)O2)C[C@H](O)[C@H]1C [Example 1, Maduramicine]
cells quantified in 9 fields, X (±SD) (Replication A): 268 (29) | cells quantified in 9 fields, X (±SD) (Replication B): 156 (35) | cells quantified in 9 fields, X (±SD) (Replication C): 239 (21) | cells quantified in 9 fields, Means mean (±SD): 221 (58)

Cc1cc(-n2c(=O)[nH]c(=O)n(C)c2=O)ccc1Oc1ccc(SC(F)(F)F)cc1 [Example 2]
cells quantified in 9 fields, X (±SD) (Replication A): 999 (12) | cells quantified in 9 fields, X (±SD) (Replication B): 899 (8) | cells quantified in 9 fields, X (±SD) (Replication C): 789 (6) | cells quantified in 9 fields, Means mean (±SD): 895 (105)
